Results from patent publication US20050118224A1, “Edible pesticidal formulations” (priority 2001, published 2005).

Assay: Chlorpyrifos loss from liquid blends with oleophilic phase candidates, 70° C. for 70 h
Type: physicochemical
Settings: 1.2 g chlorpyrifos in 9 g candidate, on aluminium foil
Experimental: 1.2 g of chlorpyrifos was added to 9 g of each alternative oleophilic candidate (see Table 14). 1.02 g of this liquid blend was then placed onto aluminium foil within a glass Petrie dish. The control was molten chlorpyrifos alone. Samples were then placed in a fan forced oven at 70° C. for 70 h before being removed and analysed for chlorpyrifos content.

In the case of CCOP(=S)(OCC)Oc1nc(Cl)c(Cl)cc1Cl [No oleophilic phase, chlorpyrifos], the “Chlorpyrifos loss (%)” value is reported as 37%.
